The source made the active and inactive calls.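 How the source made its calls: active means Fitted curve of melting temperature shift crosses the 1.0 threshold at or below the sample's highest valid tested concentration; inconclusive means Flat fit with activity 30 to 70, or invalid fit; inactive means Opposite direction, flat within 30, or no crossing.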
Target: Fibroblast growth factor 22 (Homo sapiens) (UniProt Q9HCT0)
Experiment: binders of human FGF22 protein, dose response, FGF22 synaptogenesis inhibitor project, biophysical, thermal shift, cherry-pick (AID 687022)
Settings: recombinant FGF22 thermal shift, SYPRO orange melting

Fibroblast growth factor 22 (Homo sapiens), sequence (Q9HCT0 whole entry, looked up): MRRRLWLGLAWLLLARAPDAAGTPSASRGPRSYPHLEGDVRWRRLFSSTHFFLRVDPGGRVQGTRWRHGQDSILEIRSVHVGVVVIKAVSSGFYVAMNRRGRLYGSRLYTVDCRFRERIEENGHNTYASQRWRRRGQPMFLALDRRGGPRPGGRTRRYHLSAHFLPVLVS

Compound	AbsAC1 (concentration giving Tm-shift threshold 1.0)
COc1ccc(NC(=O)N(C)C[C@@H]2Oc3ccc(NC(=O)Cc4ccccc4)cc3C(=O)N([C@H](C)CO)C[C@H]2C)cc1	39.8 µM
O=S(=O)(ON(c1ccccc1)S(=O)(=O)c1ccccc1)c1ccccc1	14 µM
O=C(O)c1cccc(NS(=O)(=O)c2ccc(-c3ccc(S(=O)(=O)Nc4cccc(C(=O)O)c4)cc3)cc2)c1	1.2 µM
COc1ccc2c(CC(=O)NNC(=O)c3ccc(O)cc3)coc2c1	3.22 µM
Cc1ccc(OCCCC(=O)Nc2ccc(S(=O)(=O)N3CCOCC3)cc2)cc1	2.45 µM
C[C@@H]1CN([C@@H](C)CO)C(=O)c2cc(NC(=O)Nc3ccc(C(F)(F)F)cc3)ccc2O[C@@H]1CN(C)Cc1ccc(C(=O)O)cc1	18.1 µM
CN1C(=O)c2cc(NC(=O)c3cccc(F)c3)ccc2OC[C@H]2O[C@@H](CC(=O)NCc3ccccc3)CC[C@H]21	3.24 µM
O=[N+]([O-])c1cccc(S(=O)(=O)Nc2ccc(-c3ccc(N4CCCC4)nn3)cc2)c1	19.1 µM
COc1ccc(-c2cn(CC[C@H]3CC[C@H](NC(=O)Nc4ccc(F)cc4)[C@@H](CO)O3)nn2)cc1	18 µM
CC(=O)c1ccc(OCCCC(=O)Nc2ccc(S(=O)(=O)N3CCOCC3)cc2)cc1	> 38 µM (inactive)
CCNC(=O)C[C@@H]1CC[C@H]2[C@H](COc3ccc(NC(=O)Nc4ccc(Cl)cc4)cc3C(=O)N2C)O1	6.25 µM
CCc1nnc(NS(=O)(=O)c2ccc(Nc3ccc([N+](=O)[O-])c4nonc34)cc2)s1	> 5 µM (inactive)
O=C(C[C@@H]1CC[C@H]2[C@@H](COC[C@@H](O)CN2S(=O)(=O)c2cccc(F)c2)O1)Nc1ccccc1	3.53 µM
CCN1C(=O)C(CC(=O)Nc2ccc(F)cc2)N(Cc2ccc3c(c2)OCO3)C1=S (stereo not drawn)	2.83 µM
CCCCNC(=O)c1onc(CSc2ccc(F)c(F)c2)c1C(=O)NCCCC	0.929 µM
Cc1cccc(S(=O)(=O)N2C[C@H](O)COC[C@H]3O[C@H](CC(=O)Nc4ccccc4)CC[C@@H]32)c1	7.19 µM
Cc1ccc(NC(=O)c2ccc(OCc3c(C)noc3C)cc2)c(C)c1	2.58 µM
C[C@H]1CN([C@@H](C)CO)S(=O)(=O)c2ccc(C3=CCCC3)cc2O[C@H]1CN(C)C(=O)Nc1ccc2c(c1)OCO2	22.9 µM
Cc1nc2ccc(NC(=O)c3ccc(C)c(S(=O)(=O)N4CCOCC4)c3)cc2s1	25.9 µM
CN(Cc1c(C(=O)N/N=C/c2ccc(O)cc2)nnn1-c1nonc1N)c1ccccc1	0.867 µM
C[C@H](CO)N1C[C@H](C)[C@@H](CN(C)C(=O)C2CC2)OCc2ccccc2-c2ccccc2C1=O	35.4 µM
C[C@@H]1CN([C@@H](C)CO)S(=O)(=O)c2ccc(C3=CCCC3)cc2O[C@@H]1CN(C)C(=O)Nc1ccc2c(c1)OCO2	20.2 µM
C/C=C/c1ccc2c(c1)O[C@H](CN(C)C(=O)Nc1cc(F)ccc1F)[C@H](C)CN([C@H](C)CO)S2(=O)=O	> 42 µM (inactive)
CN1C(=O)c2cc(NC(=O)c3cccc(F)c3)ccc2OC[C@H]2O[C@@H](CC(=O)NCC3CCCCC3)CC[C@H]21	22.3 µM

Further lines, results first:

AbsAC1 (concentration giving Tm-shift threshold 1.0)	Compound
7.4 µM	O=C1C(Cl)=C(NS(=O)(=O)c2ccc([N+](=O)[O-])cc2)C(=O)c2ccccc21
2.97 µM	COc1cccc(NC(=O)N(C)C[C@@H]2Oc3cc(-c4ccccc4F)ccc3S(=O)(=O)N([C@@H](C)CO)C[C@@H]2C)c1
2.76 µM	COc1ccc(NC(=O)COC(=O)Cc2c[nH]c3ccccc23)cc1Cl
2.38 µM	Cn1c(=O)c2c(-c3ccccc3)n(-c3cc(Cl)c([N+](=O)[O-])cc3O)cc2n(C)c1=O
4.24 µM	CCOc1ccc(N2C(=O)C(CC(=O)Nc3ccccc3)N(Cc3ccccn3)C2=S)cc1 (stereo not drawn)
2.86 µM	Cc1[nH]c2ccc(C(=O)OCC(=O)Nc3cccc(S(N)(=O)=O)c3)cc2c1C
3.72 µM	Cc1ccn(-c2ccc(NC(=O)c3cccs3)cc2)n1
17.8 µM	O=C(Nc1ccc2c(c1)OCO2)c1ccc(NC2CC2)c([N+](=O)[O-])c1
3.25 µM	S=C(Nc1ccc(Cl)cc1)Nc1ccc2cn[nH]c2c1
4.5 µM	O=C(O)Cc1ccc(NC(=O)c2ccc(Cl)c(Cl)c2)cc1
3.64 µM	Cc1ccc2nc(-c3ccc(NC(=O)COCC(=O)O)cc3)sc2c1
10.7 µM	S=c1[nH]c2cc3ccccc3cc2[nH]1
7.61 µM	COc1c(O)ccc(/C=C(\C#N)c2nc3ccccc3[nH]2)c1[N+](=O)[O-]
4.36 µM	Cc1cccc(NC(=O)Nc2ccc(S(N)(=O)=O)cc2)c1
9.4 µM	CCOc1ccc(N2C(=O)C(CC(=O)Nc3ccc(F)cc3)N(Cc3ccccn3)C2=S)cc1 (stereo not drawn)
17.9 µM	COc1ccc(NC(=O)c2[nH]ncc2[N+](=O)[O-])cc1
4.84 µM	O=c1c2cc([N+](=O)[O-])cc([N+](=O)[O-])c2[nH]n1-c1ccccc1

AbsAC1 (concentration giving Tm-shift threshold 1.0)	Compound
10.7 µM	O=C1C(=O)C(c2ccccc2)C(=O)C1c1ccccc1 (stereo not drawn)
13.4 µM	O=C(Cc1c[nH]c2ccccc12)N1CCN(S(=O)(=O)c2cccc(Cl)c2Cl)CC1
16.7 µM	COC(=O)c1cc(OC)c(OC)cc1NC(=O)c1ccccc1C
5.6 µM	CCN(CC)c1ccc2cc(S(=O)(=O)c3ccc(Cl)cc3)c(=O)oc2c1
10.2 µM	Cc1cc(C)cc(NS(=O)(=O)c2cc3[nH]c(=O)c(=O)[nH]c3cc2C)c1
2.23 µM	Cc1cc(C(=O)N/N=C/c2c[nH]c3ccccc23)cs1
1.67 µM	CC(C)c1c(C(=O)N/N=C/c2c[nH]c3ccccc23)nnn1-c1nonc1N
6.42 µM	CC(C)CC(=O)Nc1ccc(C(=O)CN2C(=O)NC3(CCOc4ccccc43)C2=O)cc1 (stereo not drawn)
8.48 µM	O=C(Nc1cccnc1)c1ccc(NS(=O)(=O)c2cccc([N+](=O)[O-])c2)cc1
1.15 µM	Nc1cccc(-c2nc3ccc(C(=O)c4ccccc4)cc3[nH]2)c1
6.04 µM	COc1ccc(N2C(=O)C(CC(=O)Nc3ccccc3)N(Cc3ccc4c(c3)OCO4)C2=O)cc1 (stereo not drawn)
3.02 µM	CCOC(=O)c1c(N)sc(C(=O)Nc2ccccc2)c1C
> 38 µM (inactive)	O=c1c2ccccc2[nH]c2ccc(F)cc12
6.33 µM	O=[N+]([O-])c1ccc2nc(NS(=O)(=O)c3ccccc3[N+](=O)[O-])sc2c1
5.76 µM	O=C(NN=Cc1ccc(O)cc1)c1ccccc1NS(=O)(=O)c1cccs1
15.5 µM	C=C1[C@@H](O)[C@H](Cc2ccccc2)N(Cc2ccccc2Br)S1(=O)=O
2.05 µM	Oc1ccc(/C=N/N=C/c2ccc(O)c(O)c2)cc1O
